Article PMC8510169, “Isolation, Characterization, Complete Structural Assignment, and Anticancer Activities of the Methoxylated Flavonoids from Rhamnus disperma Roots” (Molecules, 2021)
Like-named read-outs stand apart in the source and are kept apart here.

Legend:
[1] = tested on: MCF 7, A2780, and HT 29 cancer cell lines; experiment: MTT cytotoxicity assay, tested cancer cell lines taken together; assay type: cell-based, human; settings: for IC50: 72 h, MTT assay, MCF 7, A2780, HT 29, read-out: IC50 values against the three tested cancer cell lines (range over cell lines); for folds more selective/cytotoxic against tested cancer cell lines compared to MRC5 normal cells: ratio of MRC5 IC50 to cancer cell line IC50
Description: (§1) Three cancerous cell lines, as well as one normal fibroblast cell line, were bought from the ATCC, USA: MCF 7 (human breast adenocarcinoma), A2780 (human ovary adenocarcinoma), HT 29 (human colon adenocarcinoma), and MRC5 (normal human fetal lung fibroblast). The culture procedure was performed as described in the literature. Briefly, the cells were sub-cultured at 37 °C, 5% CO2, 95% air, and 100% relative humidity. RPMI-1640 media (10% FBS, L-glutamine and 1% antibiotic-antimycotic) was used for all cells except for MRC5, which was maintained in Eagles minimum essential medium (EMEM, 10% FBS and 1% antibiotic-antimycotic). Cytotoxicity of compounds 1–7 and 9 was evaluated by an MTT assay as previously described. Each of the three cell lines and one normal fibroblast were cultured in 96-well plates (3 × 10^3/well), and incubated at 37 °C overnight. Final concentrations of each compound were: 0, 0.05, 0.5, 5, 25, and 50 μM in media (DMSO 0.1%). Each concentration was tested in triplicates. The plates were incubated for 72 h and then MTT (50 μL) was added to each well. Plates were incubated for 3 h, supernatant was aspirated, and 100 μL of DMSO was added to each well. Absorbance was read on a multi-plate reader. The optical density of the purple formazan A550 is proportional to the number of viable cells. Compound concentrations causing 50% inhibition (IC50) compared to control cell growth (100%) were determined. GraphPad Prism version 5.00 for Windows, GraphPad Software (San Diego, CA, USA) was used for analysis.

MCF 7 cells [2] = experiment: Annexin V FITC/PI apoptosis assay; assay type: cell-based, human; settings: MCF 7, 24 h, 5, 10 and 20 µM
Source text: Apoptosis was quantified by detecting cell surface exposure of phosphatidylserine (PS) in apoptotic cells using annexin V PI/FITC. Living cells stained with neither of the two dyes (PI−/annexin V−), while early apoptotic cells stain only with annexin V (PI−/annexin V+). In late apoptosis, cell membrane integrity is lost allowing penetration of PI (PI+/annexin V+); while in necrosis (death), cells stain with PI only (PI+/annexin V−).
The Annexin V FITC/PI assay was devised to quantify apoptosis using MCF 7 cells. MCF 7 cells were cultured in 6 well plates (1 × 10^5 cells/well) in 2 mL medium overnight at 37 °C. Then it was treated by compound 1 (24 h; final concentrations: 0, 5, 10, and 20 µM). Media was collected in tubes and kept on ice, and remaining cells were trypsinized, incubated at 37 °C and added to previous tubes. Cells were centrifuged (350 g) and supernatants were discarded. Cells were washed with PBS, centrifuged and pellets re-suspended in binding buffer (100 μL) and annexin V FITC (10 μL). Tubes were incubated at room temperature in the dark for 20 min. Binding buffer (400 μL) and 10 μL propidium iodide (PI) were added. Samples were analyzed by flow cytometry (BC FC500) within 1 h. Viable cells were differentiated from early and late apoptotic/necrotic cells by annexin V (X axis) and PI staining (Y axis).

[3] = tested on: HT 29 (human colon adenocarcinoma); experiment: MTT cytotoxicity assay, HT 29; assay type: cell-based; settings: mean ± SD
Description: as §1

[4] = tested on: A2780 (human ovary adenocarcinoma); experiment: MTT cytotoxicity assay, A2780; assay type: cell-based; settings: 72 h, mean ± SD
Description: as §1

[5] = tested on: MCF 7 (human breast adenocarcinoma); experiment: MTT cytotoxicity assay, MCF 7; assay type: cell-based; settings: mean ± SD
Description: as §1

[6] = tested on: MRC5 (normal human fetal lung fibroblast); experiment: MTT cytotoxicity assay, MRC5 normal fibroblasts; assay type: cell-based; settings: 72 h, normal fibroblast cell line, mean ± SD
Description: as §1

MCF 7 cells [7] = experiment: Cell cycle analysis (PI, flow cytometry); assay type: cell-based, human; settings: MCF 7, 24 h, 5, 10 and 20 µM, compared to the control
Description: The cell cycle is a series of changes occurring from the initial phase of cell formation leading to its division as a consequence of a specific mechanism. Cell cycle phases include G1 (gap 1), S (synthesis), G2 (gap 2), and M (mitosis), with cell cycle arrest usually taking place in the G1/S or the G2/M check points. Compound 1 was used to treat the MCF 7 cell line (24 h; 5 µM, 10 µM, and 20 µM) to investigate possible cell cycle effect.
Cell cycle analysis was performed using MCF 7 cells, which were cultured in 6 well plates (1 × 10^5 cells/well in 2 mL medium), before treatment with compound 1 (0, 5, 10, and 20 μM; 24 h). Cells were washed with cold PBS and trypsinized. Collected cells were centrifuged at 350 g/5 min, and supernatant discarded. Pellets were washed in cold PBS, centrifuged, and fixed overnight in 70% ice-cold ethanol. Centrifuged cells were re-suspended in cold PBS with the addition of ribonuclease A (15 min), followed by PI (2 µL/mL). Samples were held on ice and analyzed by flow cytometry. Data analysis of the DNA contents (PI bound to DNA) of 20,000 events was carried out using Expo 32 software.

| SMILES | IC50 ([1]; Homo sapiens) [nM] | IC50 [1] [nM] | folds more selective/cytotoxic against tested cancer cell lines compared to MRC5 normal cells [1] | induction of apoptosis (in words) (MCF 7 cells [2]) | induction of apoptosis (in words) (MCF 7 cells [2]; listed as compound 1) | IC50 ([3]; 72 h) [nM] | IC50 ([3]; Homo sapiens, HT-29, 72 h) [nM] | IC50 [4] [nM] | IC50 ([5]; 72 h) [nM] | IC50 ([5]; Homo sapiens, MCF7, 72 h) [nM] | IC50 [6] [nM] | effect on cell cycle (in words) (MCF 7 cells [7]) | effect on cell cycle (in words) (MCF 7 cells [7]; listed as compound 1) |
| --- | --- | --- | --- | --- | --- | --- | --- | --- | --- | --- | --- | --- | --- |
| COc1cc2oc(-c3ccc(O)cc3)c(OC)c(=O)c2c(O)c1OC [Compound 1, 5,4’-dihydroxy-3,6,7-tri-O-methyl flavone (penduletin)] | 530 to 9070 | 530 to 2170 | 2–9 folds | doubled MCF 7 apoptotic populations in a dose dependent manner | induced remarkable apoptosis in a dose dependent manner | 2160 ± 20 | ≤ 2000 | 530 ± 450 | 2170 ± 260 | ≤ 2000 | 4400 ± 1450 | caused G1 cell cycle arrest | caused dose-dependent G1 arrest |
| COc1cc(-c2oc3cc(OC)c(OC)c(OC(C)=O)c3c(=O)c2OC)cc(OC)c1OC [Compound 9, 5-O-acetyl-3,6,7,3’,4’,5’-hexa-O-methyl flavone] |  |  | 6–8 folds |  |  | 3180 ± 640 | 2000 to 3000 |  | 2190 ± 640 | 2000 to 3000 | 19000 ± 2980 |  |  |
| COc1cc(-c2oc3cc(OC)c(OC)c(O)c3c(=O)c2OC)cc(O)c1OC [Compound 2, 5,3’-dihydroxy-3,6,7,4’,5’-penta-O-methyl flavone] |  |  | not selective |  |  |  | 9070 ± 220 | 8970 ± 1720 |  | 6810 ± 40 | 5460 ± 1570 |  |  |
| COc1cc(-c2oc3cc(OC)c(OC)c(O)c3c(=O)c2OC)cc(OC)c1OC [Compound 3, 5-hydroxy-3,6,7,3’,4’,5’-hexa-O-methyl flavone] | 530 to 9070 |  | 4–5 folds |  |  |  | 2710 ± 1250 | 3730 ± 1750 |  | 2760 ± 160 | 11700 ± 1580 |  |  |
